Test results published in ChEMBL document CHEMBL5154748, “Discovery of novel 3-butyl-6-benzyloxyphthalide Mannich base derivatives as multifunctional agents against Alzheimer's disease” (Bioorg Med Chem, 2022).
The source made the active and inactive calls. The rule behind the calls is not given here.

Legend:
[1] = biological target: T1, Amine oxidase [flavin-containing] A (Homo sapiens, UniProt P21397); experiment: Inhibition of human MAO-A at 10 uM by fluorescence assay
T1 sequence (P21397 whole entry): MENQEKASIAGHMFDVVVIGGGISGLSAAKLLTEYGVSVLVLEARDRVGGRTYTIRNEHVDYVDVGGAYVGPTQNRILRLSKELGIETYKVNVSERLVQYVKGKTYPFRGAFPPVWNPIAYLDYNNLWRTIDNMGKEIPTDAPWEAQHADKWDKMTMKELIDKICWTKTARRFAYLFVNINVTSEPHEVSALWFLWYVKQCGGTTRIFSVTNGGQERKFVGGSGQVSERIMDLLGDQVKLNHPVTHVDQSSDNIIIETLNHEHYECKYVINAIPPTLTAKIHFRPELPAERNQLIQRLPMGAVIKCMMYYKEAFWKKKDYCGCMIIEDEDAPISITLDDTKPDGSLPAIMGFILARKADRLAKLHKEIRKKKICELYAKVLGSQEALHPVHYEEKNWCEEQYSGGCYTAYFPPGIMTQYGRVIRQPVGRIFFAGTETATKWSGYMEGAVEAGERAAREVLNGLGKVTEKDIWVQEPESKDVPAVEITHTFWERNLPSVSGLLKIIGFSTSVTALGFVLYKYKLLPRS

[2] = biological target: Butyrylcholinesterase (Rattus norvegicus) (UniProt Q9JKC1); experiment: Inhibition of Rat BuChE at 10 uM by Ellman's method
Chain of Butyrylcholinesterase (Rattus norvegicus) (Q9JKC1 as listed by the source): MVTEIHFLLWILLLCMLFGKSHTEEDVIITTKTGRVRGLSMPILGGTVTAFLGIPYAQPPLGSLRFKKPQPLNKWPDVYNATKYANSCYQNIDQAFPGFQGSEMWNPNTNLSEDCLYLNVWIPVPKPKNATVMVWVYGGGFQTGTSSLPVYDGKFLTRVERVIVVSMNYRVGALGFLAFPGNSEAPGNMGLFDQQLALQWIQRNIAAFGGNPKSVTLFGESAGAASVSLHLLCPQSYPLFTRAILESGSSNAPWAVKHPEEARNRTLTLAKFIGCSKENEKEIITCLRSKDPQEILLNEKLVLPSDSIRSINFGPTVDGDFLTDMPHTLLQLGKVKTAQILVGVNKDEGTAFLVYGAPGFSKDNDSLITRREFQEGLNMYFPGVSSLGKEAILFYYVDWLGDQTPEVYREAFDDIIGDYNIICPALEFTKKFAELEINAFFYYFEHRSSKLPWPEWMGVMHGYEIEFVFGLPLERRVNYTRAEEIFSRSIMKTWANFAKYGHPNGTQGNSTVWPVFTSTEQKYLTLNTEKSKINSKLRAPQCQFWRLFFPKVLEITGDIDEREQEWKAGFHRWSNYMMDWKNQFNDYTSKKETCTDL

[3] = Antioxidant activity assessed as trolox equivalent of ORAC radical scavenging activity by ORAC-FL assay; format: functional
Acetylcholinesterase [4] = biological target: Acetylcholinesterase (Electrophorus electricus, UniProt O42275); experiment: Inhibition of Electric eel AChE by Ellman's method
Chain of Acetylcholinesterase (Electrophorus electricus, UniProt O42275) (O42275 whole entry): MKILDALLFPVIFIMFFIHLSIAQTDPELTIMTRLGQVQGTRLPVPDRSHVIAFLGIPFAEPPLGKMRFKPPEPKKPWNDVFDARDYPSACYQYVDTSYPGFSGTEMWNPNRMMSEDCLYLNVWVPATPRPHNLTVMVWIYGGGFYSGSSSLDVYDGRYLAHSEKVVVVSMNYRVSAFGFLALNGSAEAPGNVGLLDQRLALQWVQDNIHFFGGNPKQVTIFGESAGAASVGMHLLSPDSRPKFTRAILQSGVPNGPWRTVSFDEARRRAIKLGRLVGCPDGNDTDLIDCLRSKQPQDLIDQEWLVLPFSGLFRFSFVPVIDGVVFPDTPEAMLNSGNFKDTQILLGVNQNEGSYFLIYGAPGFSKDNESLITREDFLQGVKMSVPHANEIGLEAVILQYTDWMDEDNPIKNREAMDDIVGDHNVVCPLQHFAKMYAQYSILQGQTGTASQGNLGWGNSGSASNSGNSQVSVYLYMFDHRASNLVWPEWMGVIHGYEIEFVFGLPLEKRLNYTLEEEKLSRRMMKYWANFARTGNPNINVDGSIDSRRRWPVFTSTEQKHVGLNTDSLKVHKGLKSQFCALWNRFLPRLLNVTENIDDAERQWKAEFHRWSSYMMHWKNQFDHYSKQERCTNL

[5] = biological target: T2, Amine oxidase [flavin-containing] B (Homo sapiens, UniProt P27338); experiment: Inhibition of human MAO-B at 10 uM by fluorescence assay
T2 sequence (P27338 whole entry): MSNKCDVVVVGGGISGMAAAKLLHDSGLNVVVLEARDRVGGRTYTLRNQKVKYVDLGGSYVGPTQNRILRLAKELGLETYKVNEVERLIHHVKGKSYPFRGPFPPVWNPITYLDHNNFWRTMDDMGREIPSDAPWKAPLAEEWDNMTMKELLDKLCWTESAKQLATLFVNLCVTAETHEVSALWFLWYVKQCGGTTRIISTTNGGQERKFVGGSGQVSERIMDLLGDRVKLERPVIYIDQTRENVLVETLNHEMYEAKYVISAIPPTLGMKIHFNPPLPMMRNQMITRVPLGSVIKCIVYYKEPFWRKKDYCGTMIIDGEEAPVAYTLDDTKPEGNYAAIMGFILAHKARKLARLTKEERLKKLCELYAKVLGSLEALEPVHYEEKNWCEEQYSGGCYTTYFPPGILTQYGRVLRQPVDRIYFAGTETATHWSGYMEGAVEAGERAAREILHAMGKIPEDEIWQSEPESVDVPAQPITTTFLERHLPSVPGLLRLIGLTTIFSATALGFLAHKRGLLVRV

[6] = biological target: Acetylcholinesterase (Electrophorus electricus) (UniProt O42275); experiment: Inhibition of Electric eel AChE at 10 uM by Ellman's method
Chain of Acetylcholinesterase (Electrophorus electricus) (O42275 24-633 limits assumed): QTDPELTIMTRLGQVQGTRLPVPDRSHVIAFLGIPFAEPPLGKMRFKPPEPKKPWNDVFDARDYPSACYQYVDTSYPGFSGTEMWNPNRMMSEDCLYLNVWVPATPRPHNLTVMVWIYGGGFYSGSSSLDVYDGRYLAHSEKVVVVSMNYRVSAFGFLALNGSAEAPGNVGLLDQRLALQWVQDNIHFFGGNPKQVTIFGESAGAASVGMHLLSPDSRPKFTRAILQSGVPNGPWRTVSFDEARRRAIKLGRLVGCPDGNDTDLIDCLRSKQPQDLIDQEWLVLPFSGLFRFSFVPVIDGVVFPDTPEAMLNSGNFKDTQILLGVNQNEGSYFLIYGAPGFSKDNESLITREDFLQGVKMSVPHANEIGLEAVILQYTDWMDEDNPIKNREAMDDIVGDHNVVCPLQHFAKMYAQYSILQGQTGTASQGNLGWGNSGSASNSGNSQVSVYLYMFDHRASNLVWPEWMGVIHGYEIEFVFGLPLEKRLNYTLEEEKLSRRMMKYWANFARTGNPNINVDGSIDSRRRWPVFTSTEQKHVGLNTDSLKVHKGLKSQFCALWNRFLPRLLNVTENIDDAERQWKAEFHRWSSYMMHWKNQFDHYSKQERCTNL

[7] = biological target: T2, Amine oxidase [flavin-containing] B; experiment: Inhibition of human MAO-B by fluorescence assay
Acetylcholinesterase [8] = biological target: T3, Acetylcholinesterase (Homo sapiens, UniProt P22303); experiment: Inhibition of Human AChE by Ellman's method
T3 sequence (P22303 whole entry): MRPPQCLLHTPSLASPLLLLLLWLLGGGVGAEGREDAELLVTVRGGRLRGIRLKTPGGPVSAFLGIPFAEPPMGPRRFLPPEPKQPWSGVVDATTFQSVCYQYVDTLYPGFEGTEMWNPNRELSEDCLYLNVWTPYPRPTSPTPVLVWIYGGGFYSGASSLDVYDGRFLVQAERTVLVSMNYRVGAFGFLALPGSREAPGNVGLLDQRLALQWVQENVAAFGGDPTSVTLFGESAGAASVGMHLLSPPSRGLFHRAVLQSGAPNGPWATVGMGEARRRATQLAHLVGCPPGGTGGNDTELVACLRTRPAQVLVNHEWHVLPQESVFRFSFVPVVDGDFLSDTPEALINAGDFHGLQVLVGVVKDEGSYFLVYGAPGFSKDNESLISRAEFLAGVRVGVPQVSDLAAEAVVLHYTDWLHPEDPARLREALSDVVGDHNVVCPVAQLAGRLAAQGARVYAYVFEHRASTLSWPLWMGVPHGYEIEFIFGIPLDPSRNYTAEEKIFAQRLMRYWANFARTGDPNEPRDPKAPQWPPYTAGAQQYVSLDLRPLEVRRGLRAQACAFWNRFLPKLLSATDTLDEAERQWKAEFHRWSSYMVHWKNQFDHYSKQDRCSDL

PC-12 [9] = experiment: Cytotoxicity against rat PC12 cells assessed as decrease in cell viability at 100 uM by MTT assay; format: toxicity, cell-based; details: pc-12, 100 µM
BV-2 [10] = experiment: Antineuroinflammatory activity in mouse BV-2 cells assessed as inhibition of LPS-induced TNF-alpha production at 2.5 uM after 24 hrs by ELISA; format: functional
[11] = Metal chelating activity assessed as Cu2+-compound complex formation at 37.5 uM by UV-visible spectrophotometry
BV-2 [12] = experiment: Antineuroinflammatory activity in mouse BV-2 cells assessed as inhibition of LPS-induced TNF-alpha production at 0.5 uM after 24 hrs by ELISA; format: functional
BV-2 [13] = experiment: Antineuroinflammatory activity in mouse BV-2 cells assessed as inhibition of LPS-induced TNF-alpha production at 10 uM after 24 hrs by ELISA; format: functional
BV-2 [14] = experiment: Inhibition of LPS-induced ROS production in mouse BV-2 cells assessed as complete reversal at 10 uM by DCFH-DA staining based fluorescence analysis; format: functional, cell-based
Acetylcholinesterase [15] = biological target: T3, Acetylcholinesterase; experiment: Mixed type inhibition of AChE (unknown origin) by Lineweaver-Burk plot analysis
BV-2 [16] = experiment: Cytotoxicity against mouse BV-2 cells at 10 uM in presence of LPS by MTT method; format: toxicity, cell-based; details: bv-2, 10 µM
BV-2 [17] = experiment: Antineuroinflammatory activity in mouse BV-2 cells assessed as inhibition of LPS-induced NO production at 0.5 uM after 24 hrs by Griess reagent based assay; format: functional
BV-2 [18] = experiment: Inhibition of LPS-induced ROS production in mouse BV-2 cells at 2.5 uM by DCFH-DA staining based fluorescence analysis; format: functional, cell-based
BV-2 [19] = experiment: Antineuroinflammatory activity in mouse BV-2 cells assessed as inhibition of LPS-induced NO production at 10 uM after 24 hrs by Griess reagent based assay; format: functional
PC-12 [20] = experiment: Neuroprotective against H2O2-induced rat PC-12 cell injury assessed as cell viability at 25 uM by MTT assay (reference value: 48.0%); format: functional; details: read-out: Activity
PC-12 [21] = experiment: Neuroprotective against H2O2-induced rat PC-12 cell injury assessed as cell viability at 10 uM by MTT assay (reference value: 48.0%); format: functional; details: read-out: Activity
PC-12 [22] = experiment: Neuroprotective against H2O2-induced rat PC-12 cell injury assessed as cell viability at 4 uM by MTT assay (reference value: 48.0%); format: functional; details: read-out: Activity
BV-2 [23] = experiment: Antineuroinflammatory activity in mouse BV-2 cells assessed as inhibition of LPS-induced NO production at 2.5 uM after 24 hrs by Griess reagent based assay; format: functional
[24] = Inhibition of reactive oxygen species production using Cu-ascorbate redox system by coumarin-3-carboxylic acid dye based fluorescence analysis; format: functional
BV-2 [25] = experiment: Cytotoxicity against mouse BV-2 cells at 10 uM by MTT method; format: toxicity, cell-based; details: bv-2, 10 µM
BV-2 [26] = experiment: Inhibition of LPS-induced ROS production in mouse BV-2 cells at 10 uM by DCFH-DA staining based fluorescence analysis; format: functional, cell-based

SMILES: CCCCC1OC(=O)c2cc(OCc3cccc(CN4CCCC4)c3O)ccc21 (configuration not stated)
- inhibition at 10 µM [1]: 23.5%
- inhibition [2]: 5.8%
- Activity [3]: 2.38
- IC50 (Acetylcholinesterase [4]): 26.7 µM
- inhibition at 10 µM [5]: 6.9%

SMILES: CCCCC1OC(=O)c2cc(OCc3cccc(CN4CCCCC4)c3O)ccc21 (configuration not stated)
- inhibition at 10 µM [1]: 20%
- inhibition [2]: 14.2%
- Activity [3]: 1.84
- IC50 (Acetylcholinesterase [4]): 14.5 µM
- inhibition at 10 µM [5]: 12.8%

SMILES: CCCCC1OC(=O)c2cc(OCc3cccc(O)c3)ccc21 (configuration not stated)
- inhibition at 10 µM [1]: 29.3%
- inhibition [2]: < 5%
- Activity [3]: 0.88
- inhibition [6]: 38.6%
- IC50 [7]: 3.3 µM

SMILES: CCCCC1OC(=O)c2cc(OCc3cccc(CN4CCN(CC)CC4)c3O)ccc21 (configuration not stated)
- inhibition at 10 µM [1]: 12.8%
- inhibition [2]: < 5%
- Activity [3]: 1.67
- inhibition [6]: 20.7%
- inhibition at 10 µM [5]: 28.8%

SMILES: CCCCC1OC(=O)c2cc(OCc3ccc(CN(C)C)c(O)c3)ccc21 (configuration not stated)
- inhibition at 10 µM [1]: 29%
- IC50 (Acetylcholinesterase [8]): 8.78 µM
- inhibition [2]: 11.8%
- Activity [3]: 1.62
- IC50 (Acetylcholinesterase [4]): 5.39 µM
- IC50 [7]: 6.9 µM

SMILES: CCCCC1OC(=O)c2cc(OCc3ccc(CN(CC)CC)c(O)c3)ccc21 (configuration not stated)
- inhibition at 10 µM [1]: 26.3%
- IC50 (Acetylcholinesterase [8]): 0.35 µM
- inhibition [2]: 8.1%
- Activity [3]: 1.53
- IC50 (Acetylcholinesterase [4]): 0.64 µM
- IC50 [7]: 6.81 µM

SMILES: CCCCC1OC(=O)c2cc(OCc3cccc(CN4CCN(C)CC4)c3O)ccc21 (configuration not stated)
- inhibition at 10 µM [1]: 12.5%
- inhibition [2]: < 5%
- Activity [3]: 2.33
- inhibition [6]: 29.4%
- inhibition at 10 µM [5]: 32.3%

SMILES: CCCCC1OC(=O)c2cc(OCc3ccc(CN4CCCCC4)c(O)c3)ccc21 (configuration not stated)
- Activity (PC-12 [9]): Toxic
- inhibition at 2.5 µM (BV-2 [10]): 47.8%
- inhibition at 10 µM [1]: 18.1%
- Activity [11]: Active
- inhibition at 0.5 µM (BV-2 [12]): 32.7%
- IC50 (Acetylcholinesterase [8]): 0.041 µM
- inhibition at 10 µM (BV-2 [13]): 63.2%
- inhibition [2]: < 5%
- inhibition (BV-2 [14]): Active
- Activity [3]: 1.86
- IC50 (Acetylcholinesterase [4]): 0.087 µM
- inhibition (Acetylcholinesterase [15]): Active
- Activity (BV-2 [16]): Non-Toxic
- inhibition at 0.5 µM (BV-2 [17]): 30.4%
- inhibition (BV-2 [18]): Active
- inhibition at 10 µM (BV-2 [19]): 58.9%
- viability at 25 µM (PC-12 [20]): 80.2%
- viability at 10 µM (PC-12 [21]): 71.1%
- viability at 4 µM (PC-12 [22]): 56.3%
- inhibition at 2.5 µM (BV-2 [23]): 43.5%
- IC50 [7]: 0.3 µM
- inhibition [24]: Active
- Activity (BV-2 [25]): Non-Toxic

SMILES: CCCCC1OC(=O)c2cc(OCc3cccc(CN4CCOCC4)c3O)ccc21 (configuration not stated)
- inhibition at 10 µM [1]: 18.4%
- inhibition [2]: 5.8%
- Activity [3]: 2.14
- IC50 (Acetylcholinesterase [4]): 22.4 µM
- IC50 [7]: 7.63 µM

SMILES: CCCCC1OC(=O)c2cc(OCc3ccc(CN4CCN(C)CC4)c(O)c3)ccc21 (configuration not stated)
- inhibition at 10 µM [1]: 22.5%
- IC50 (Acetylcholinesterase [8]): 23.8 µM
- inhibition [2]: < 5%
- Activity [3]: 0.96
- IC50 (Acetylcholinesterase [4]): 13.6 µM
- IC50 [7]: 2.39 µM

SMILES: CCCCC1OC(=O)c2cc(OCc3cccc(CN(CC)Cc4ccccc4)c3O)ccc21 (configuration not stated)
- inhibition at 10 µM [1]: 5.4%
- inhibition [2]: < 5%
- Activity [3]: 1.86
- inhibition [6]: 15.3%
- inhibition at 10 µM [5]: 12.5%

SMILES: CCCCC1OC(=O)c2cc(OCc3ccc(CN(CC)Cc4ccccc4)c(O)c3)ccc21 (configuration not stated)
- inhibition at 10 µM [1]: 14.8%
- inhibition [2]: 5.6%
- Activity [3]: 1.15
- IC50 (Acetylcholinesterase [4]): 20.5 µM
- IC50 [7]: 1.96 µM

SMILES: CCCCC1OC(=O)c2cc(OCc3ccccc3O)ccc21 (configuration not stated)
- inhibition at 10 µM [1]: 30.3%
- inhibition [2]: < 5%
- Activity [3]: 1.03
- inhibition [6]: 20.3%
- IC50 [7]: 2.07 µM

SMILES: CCCCC1OC(=O)c2cc(OCc3cccc(CN(CC)CC)c3O)ccc21 (configuration not stated)
- inhibition at 10 µM [1]: 20.4%
- inhibition [2]: < 5%
- Activity [3]: 2.02
- IC50 (Acetylcholinesterase [4]): 20.9 µM
- inhibition at 10 µM [5]: 5.2%

SMILES: CCCCC1OC(=O)c2cc(OCc3ccc(CN4CCN(CC)CC4)c(O)c3)ccc21 (configuration not stated)
- inhibition at 10 µM [1]: 17.5%
- inhibition [2]: 6.5%
- Activity [3]: 0.77
- IC50 (Acetylcholinesterase [4]): 14.8 µM
- IC50 [7]: 2.53 µM

SMILES: CCCCC1OC(=O)c2ccccc21 (racemic) [RAC-3-N-BUTYLPHTHALIDE]
- inhibition at 2.5 µM (BV-2 [10]): 27.6%
- inhibition at 0.5 µM (BV-2 [12]): 15.2%
- inhibition at 10 µM (BV-2 [13]): 43.7%
- Activity [3]: 0.21
- inhibition (BV-2 [26]): Active
- inhibition at 0.5 µM (BV-2 [17]): 13.4%
- inhibition at 10 µM (BV-2 [19]): 37.2%
- viability at 10 µM (PC-12 [21]): 64.1%
- inhibition at 2.5 µM (BV-2 [23]): 22.9%

SMILES: CCCCC1OC(=O)c2cc(OCc3ccc(CN4CCCC4)c(O)c3)ccc21 (configuration not stated)
- inhibition at 10 µM [1]: 23.7%
- IC50 (Acetylcholinesterase [8]): 3.92 µM
- inhibition [2]: 10%
- Activity [3]: 1.73
- IC50 (Acetylcholinesterase [4]): 0.89 µM
- IC50 [7]: 0.94 µM

SMILES: CCCCC1OC(=O)c2cc(OCc3ccc(CN4CCOCC4)c(O)c3)ccc21 (configuration not stated)
- inhibition at 10 µM [1]: 27.9%
- IC50 (Acetylcholinesterase [8]): 3.32 µM
- inhibition [2]: < 5%
- Activity [3]: 1.12
- IC50 (Acetylcholinesterase [4]): 8.37 µM
- IC50 [7]: 1.42 µM
